Assay results: ChEMBL document CHEMBL1158322, “New Terpenylated Dihydrochalcone Derivatives Isolated from Mitrella kentii” (J Nat Prod, 1997)
≈ marks a conversion by molar mass, not a printed value.

Each compound was assayed on NSCLC (assay: Cytotoxicity against human NSCLC cells by MTT assay).
Assay type: functional, cell-based

With CC1=C[C@H](c2c(O)cc(O)c(C(=O)CCc3ccccc3)c2O)[C@@H](C(C)C)CC1 as the compound, how does the IC50 read?
Its IC50 is > 30 µg/mL.

For CC1=C[C@H](c2c(O)c(C(=O)CCc3ccccc3)c(O)c([C@H]3C=C(C)CC[C@@H]3C(C)C)c2O)[C@@H](C(C)C)CC1, which IC50 is on record?
The IC50 was > 30 µg/mL.

CC1=C[C@H](c2c(O)cc(O)c(C(=O)CCc3ccccc3)c2O)[C@H](C(C)C)CC1 [LINDERATIN] was tested. Which IC50 did it give?
The IC50 was 3.8 µg/mL (≈ 9.63 µM).

With CC1=C[C@H](c2c(O)c(C(=O)CCc3ccccc3)c(O)c([C@H]3C=C(C)CC[C@H]3C(C)C)c2O)[C@H](C(C)C)CC1 [NEOLINDERATIN] as the compound, how does the IC50 read?
Its IC50 is > 30 µg/mL.
